Where two headings read alike, the source gives them in different places.
Legend:
[1] = tested on: Purified Human T-Lymphoctyes; experiment: Thiol levels in purified human T-lymphocytes after treatment with GSH esters; assay type: cell-based; details: purified T-cells, 0.3 ml 80 mM thiol to 0.9 ml cells, 37° C.
Protocol: HPLC Analysis of Cellular Thiols. […] Flow rates were 1 ml/min.
Purified T-cells were suspended in PBS. […] After incubation at 37° C. for the indicated times, cells were recovered and processed as described for PBM in Table 4.
Where values for cysteine are not reported, levels are <0.3 nmol/10^7cells (for 7 min. samples) or <0.5 nmol/10^7 cells (for 90 mni. samples).

[2] = tested on: Hamsters (liver, kidney, blood plasma); experiment: Thiol levels in hamsters treated with GSH esters; assay type: in vivo, Syrian hamster; details: 1 hour later
Human Erythrocytes [3] = details: for Thiol Levels, thiol found GSH / Thiol Levels, Total / Thiol Levels, thiol found GSH-ME: erythrocyte suspension, 80 mM thiol added (one-third vol), 37° C.
Protocol: Analysis of Erythrocyte Thiol by DTNB. Cell supernatant (40 μl) was added to 1 ml of 6 mM DTNB (in 143 mM phosphate buffer, pH 7.5, containing 6.3 mM EDTA). The change in absorbance at 412 nm after 1 min was converted to a value for total thiol using a GSH standard curve. The GSH standard were prepared in a 1:2:2 mixture of PBS: 0.435M acetic acid: 10% SSA (containing 2 mM EDTA) ("RBC Mix").
(§1) Derivatization of Cell Thiols for HPLC Analysis. Derivatization mixtures are as follows: Erythrocyte Lysates: 155 μl 50 mM DTPA (pH 7), 110 μl 3.33% SSA, total 180 μl cell supernatant plus "RBC Mix", 10 μl 0.1M mBBr (in CH3 CN), 100 μl of 2M Tris·HCl (pH 9 at room temperature). The samples were placed in the dark for 20-30 minutes at room temperature; the reaction was quenched with 90 μl of glacial acetic acid. Reduced Erythocyte Lysates. 155 μl mM DTT in 50 mM DTPA (pH 7), SSA, sample, and "RBC Mix" as above Tris was added and the samples were agitated at room temperature for 25 min. 20 μl Tris and 10 μl mBBr were added; the derivatization proceeds as above.
(§2) HPLC Analysis of Cellular Thiols. Samples were chromatographed on an Altex Ultrasphere ODS reverse phase column (5μ; 4.6 mm×25 cm), using one of three gradients: (1) Buffer A: 12.8% MeOH, 0.25% acetic acid, 87.75% H2 O, pH 3.9. (2) Buffer B: 90.0% MeOH, 0.25% acetic acid, 9.75% H2 O (no pH Adjustment). (3) Gradient 1: Initial, 100% A, linear gradient to 50% B at 25 min., linear gradient to 100% B at 35 min., wash with 100% B to 39.5 min.; step to 100% A at 40 min.; equilibration with 100% A to 48 min. Gradient 2: Initial, 100% A, linear gradient to 75% B at 25 min., remainder identical to Gradient 1. Gradient 3: Initial, 100% A, linear gradient to 65% A, 35% B at 25 minutes, remainder identical to gradient 1. Flow rates were 1 ml/min.
Whole blood was collected with EDTA or DTPA (0.5M, pH 7) as anticoagulant (0.4 ml/8-12 ml blood). Plasma and buffy coat were removed after centrifugation and the erythrocytes washed 3 times with 1-2 vol PBS/5 mM DTPA or EDTA. Packed erythrocytes were suspended in one-half vol. PBS. To each suspension was one-third vol. GSH, GSH-ME or GSH-DE (80 mM, pH 7). After incubation at 37° C. for the indicated times, aliquots were removed, washed (3-4×) with PBS/EDTA/DTPA, lysed with one volume 0.435M acetic acid, protein-precipitated with one volume 10% SSA/2 mM DTPA, and centrifuged to remove cell debris. Supernatants were derivatized for HPLC analysis as described in Materials and Methods.

Human Erythrocytes [4] = details: whole blood + one-half volume 120 mM thiol, 30 minutes, 37° C.
Protocol: as §1, §2
Whole blood (see Table 1) was mixed with one-half volume of 120 mM GSH, GSH-ME, or GSH-DE at pH 7. The samples were incubated for 30 minutes at 37° C. and then centrifuged. After removal of plasma and buffy coat, the erythrocytes were washed and processed as described in Table 1.

[5] = tested on: Human Peripheral Blood Mononuclear Cells; details: for Thiol Levels, thiol found GSH / Thiol Levels, Total / Thiol Levels, thiol found GSH-ME: isolated PBM, 0.3 ml 80 mM thiol to 0.9 ml cells, 37° C.
Protocol: (§3) T Cell and PBM Lysates: 120 μl 4 mM DTPA, total 360 μl sample/4.31% SSA (containing 0.5 mM DTPA), 100 μl Tris, 5μ mBBr; 20 min. in the dark, 15 μl glacial acetic acid.
as §2
PBM were isolated from whole blood (see Tables 1 and 3) washed with PBS, and re-suspended in PBS. To 0.9 ml cell suspension (5-8×10^6 cells) was added 0.3 ml of 80 mM GSH, GSH-ME or GSH-DE at pH 7. After incubation at 37° C. for the indicated times, the cells were recovered by centrifugation, washed with 14 ml PBS (2×), and lysed by addition of 4.31% of SSA/0.5 mM DTPA and 2-3 freeze-thaw cycles. After centrifugation, supernatants were derivatized for HPLC analysis.

[6] = tested on: Human Peripheral Blood Mononuclear Cells; details: 6 ml whole blood + 3 ml 60 mM thiol, 30 min, 37° C.; PBM
Protocol: as §3, §2
6 mls. whole blood (see Table 1) was mixed with 3 ml of 60 mM GSH, GSH-ME or GSH-DE at pH 7. After 30 min incubation at 37° C., PBM were isolated by Ficoll-Hypaque density gradient centrifugation. Cells were washed with 14 ml PBS (2-3) and lysed with 4.31% SSA/0.5 mM DTPA (400 μl). After centrifugation, the supernatants were derivatized for HPLC analysis.

CCCCS(=N)(=O)CCC(N)C(=O)O [BSO, L-buthionine sulfoximine]
Thiol Levels, thiol found GSH ([1]; 7 min, donor A): 2.39 ± 0.09 nmol/10^7 cells | Thiol Levels, thiol found GSH ([1]; 90 min, donor B): < 0.6 nmol/10^7 cells | Kidney thiol found GSH ([2]; fasted hamsters, BSO 6 mmol/kg I.P. 2 hours before thiol 5 mmol/kg, kidney): 1.00 ± 0.19 µmol/g | Liver thiol found GSH ([2]; fasted hamsters, BSO 6 mmol/kg I.P. 2 hours before thiol 5 mmol/kg, liver): 5.10 ± 0.51 µmol/g

N[C@@H](CCC(=O)N[C@@H](CS)C(=O)NCC(=O)O)C(=O)O [GSH, L-γ-glutamyl-L-cysteinyl-glycine]
Thiol Levels, thiol found GSH (Human Erythrocytes [3]; 7 min): 1.91 ± 0.05 mM | Thiol Levels, thiol found GSH (Human Erythrocytes [3]; 45 min): 2.04 ± 0.06 mM | Thiol Levels, thiol found GSH (Human Erythrocytes [3]; 90 min): 1.83 ± 0.07 mM | Thiol Levels Found, GSH (Human Erythrocytes [4]): 2.12 ± 0.47 mM | Thiol Levels Found, Total (Human Erythrocytes [4]): 2.12 ± 0.47 mM | Thiol Levels, thiol found GSH ([5]; 7 min, donor A): 1.86 nmol/10^6 cells | Thiol Levels, thiol found GSH ([5]; 7 min, donor B): 1.51 nmol/10^6 cells | Thiol Levels, thiol found GSH ([5]; 45 min, donor B): 1.16 ± 0.06 nmol/10^6 cells | Thiol Levels, thiol found GSH ([5]; 90 min, donor A): 1.60 nmol/10^6 cells

CCOC(=O)CNC(=O)[C@H](CS)NC(=O)CC[C@H](N)C(=O)O [GSH-ME, glutathione monoethyl (glycyl) ester]
Thiol Levels, Total (Human Erythrocytes [3]; 7 min): 2.65 ± 0.31 mM | Thiol Levels, thiol found GSH (Human Erythrocytes [3]; 7 min): 1.72 ± 0.27 mM | Thiol Levels, thiol found GSH-ME (Human Erythrocytes [3]; 7 min): 0.932 ± 0.04 mM | Thiol Levels, Total (Human Erythrocytes [3]; 45 min): 3.49 ± 0.35 mM | Thiol Levels, thiol found GSH (Human Erythrocytes [3]; 45 min): 1.83 ± 0.31 mM | Thiol Levels, thiol found GSH-ME (Human Erythrocytes [3]; 45 min): 1.66 ± 0.04 mM | Thiol Levels, Total (Human Erythrocytes [3]; 90 min): 3.57 ± 0.38 mM | Thiol Levels, thiol found GSH (Human Erythrocytes [3]; 90 min): 1.90 ± 0.30 mM | Thiol Levels, thiol found GSH-ME (Human Erythrocytes [3]; 90 min): 1.67 ± 0.08 mM | total RBC thiol levels (Human Erythrocytes [3]; summary of Table 1): about 3 mM | Thiol Levels Found, GSH (Human Erythrocytes [4]): 2.35 ± 0.52 mM | Thiol Levels Found, GSH-ME (Human Erythrocytes [4]): 3.45 ± 0.73 mM | Thiol Levels Found, Total (Human Erythrocytes [4]): 5.80 ± 1.25 mM | Thiol Levels Found, GSH [6]: 1.46 nmol/10^6 cells | Thiol Levels Found, GSH-ME [6]: 2.08 nmol/10^6 cells | Thiol Levels Found, Total [6]: 3.54 nmol/10^6 cells | total thiols in human PBM ([5]; in 90 min, text summary of Table 4): 10.6 mM | Thiol Levels, Total ([5]; 7 min, donor A): 3.32 ± 0.19 nmol/10^6 cells | Thiol Levels, thiol found GSH ([5]; 7 min, donor A): 2.05 ± 0.08 nmol/10^6 cells | Thiol Levels, thiol found GSH-ME ([5]; 7 min, donor A): 1.27 ± 0.11 nmol/10^6 cells | Thiol Levels, Total ([5]; 45 min, donor B): 4.39 ± 0.25 nmol/10^6 cells | Thiol Levels, thiol found GSH ([5]; 45 min, donor B): 1.64 ± 0.06 nmol/10^6 cells | Thiol Levels, thiol found GSH-ME ([5]; 45 min, donor B): 2.75 ± 0.19 nmol/10^6 cells | Thiol Levels, Total ([5]; 90 min, donor A): 10.7 ± 1.3 nmol/10^6 cells | Thiol Levels, thiol found GSH ([5]; 90 min, donor A): 3.45 ± 0.39 nmol/10^6 cells | Thiol Levels, thiol found GSH-ME ([5]; 90 min, donor A): 7.23 ± 0.88 nmol/10^6 cells | Blood plasma levels of GSH ([2]; hamsters, 5 mmol/kg after BSO): not affected

Reference: patent publication US5869456A, “Use of glutathione diesters” (priority 1995, dated 1999)
